Test results as given in patent US9132071B2, “Compositions containing quaternary ammonium compounds” (SANTEN SAS, priority 2006, dated 2015).

How the values were obtained:
[1] = Emulsion zeta potential by electrophoretic mobility; assay type: physicochemical; conditions: 25° C., dilution 1:250
Protocol: Zeta potential can be measured by a zetameter such as Zetasizer 2000, Malvern Instruments Ltd, UK. The zeta potential of the emulsion droplet surface is determined by electrophoretic mobility. Measurements are performed at 25° C. following dilution at 1:250 of the emulsion in double distilled water. The electrophoretic mobility is converted into zeta potential values through the Smoluchowsky equation.

[2] = Emulsion droplet size by dynamic light scattering; assay type: physicochemical; conditions: 25° C., diluted in double distilled water
Protocol: Measurements are performed at 25° C. following dilution of the emulsion in double distilled water.

[3] = test system: white male New Zealand rabbits; test: Ocular irritation, adaptation of the Draize test; assay type: in vivo; conditions: BAK C16 within an emulsion; 50 μL instilled, rabbit eye; FIG. 2
Protocol: The ocular irritation of the emulsions and solutions has been evaluated using an adaptation of the Draize test on white male New Zealand rabbits (2.75-3.00 kg). Fifty μL of emulsion or solution were instilled unilaterally and 50 μL of NaCl 0.9% in the other eye of the three rabbits per group. General aspect assessment of the animals was performed (behavior, blinking, itching of the eye with forelegs) as well as eye tissue evaluation (conjunctiva, cornea, iris) after instillation, 1, 24, 48 and 72 hours. Observations were scored according to the Draize test protocol.

| Emulsions zeta potential ([1]; emulsion containing 0.01% QA) | Emulsions zeta potential ([1]; emulsion containing 0.02% QA) | Emulsions zeta potential ([1]; emulsion containing 0.04% QA) | Emulsions zeta potential ([1]; emulsion containing 0.1% QA) | Emulsion droplet size ([2]; emulsion containing 0.01% QA) [nm] | Emulsion droplet size ([2]; emulsion containing 0.02% QA) [nm] | Emulsion droplet size ([2]; emulsion containing 0.04% QA) [nm] | Emulsion droplet size ([2]; emulsion containing 0.1% QA) [nm] | Structure (SMILES) | Emulsions zeta potential ([1]; emulsion containing 0.005% QA) | Emulsion droplet size ([2]; emulsion containing 0.005% QA) [nm] | Emulsions zeta potential ([1]; emulsion containing 0.0025% QA) | Emulsion droplet size ([2]; emulsion containing 0.0025% QA) [nm] | Emulsions zeta potential ([1]; emulsion containing 0.001% QA) | Emulsion droplet size ([2]; emulsion containing 0.001% QA) [nm] | Ocular irritation (toxicity), Draize score [3] |
| --- | --- | --- | --- | --- | --- | --- | --- | --- | --- | --- | --- | --- | --- | --- | --- |
| +4.2 mV | +7.9 mV | +16.8 mV | +23.8 mV | 263 | 230 | 225 | 180 | CCCCCCCCCCCC[N+](C)(C)Cc1ccccc1 [BAK C12, benzododecinium chloride] | −6.9 mV | 198 |  |  |  |  |  |
| +22.9 mV | +28.4 mV | +39.3 mV | +44.5 mV | 190 | 155 | 238 | 185 | CCCCCCCCCCCCCC[N+](C)(C)Cc1ccccc1 [BAK C14, myristalkonium chloride] | +19.6 mV | 190 | +11.4 mV | 204 |  |  |  |
|  |  |  |  |  |  |  |  | CCCCCCCCCCCC[N+](C)(C)C.[Br-] [ATAB C12, lauryl trimethyl ammonium bromide] | −14.6 mV |  | −35.5 mV |  |  |  |  |
|  |  |  |  |  |  |  |  | CCCCCCCCCCCCCCCC[N+](C)(C)C.[Br-] [ATAB C16, cetyl trimethyl ammonium bromide] | +20.2 mV | 212 | +11.9 mV | 222 |  |  |  |

| Structure (SMILES) | Emulsions zeta potential ([1]; emulsion containing 0.01% QA) | Emulsions zeta potential ([1]; emulsion containing 0.02% QA) | Emulsions zeta potential ([1]; emulsion containing 0.04% QA) | Emulsions zeta potential ([1]; emulsion containing 0.1% QA) | Emulsion droplet size ([2]; emulsion containing 0.01% QA) [nm] | Emulsion droplet size ([2]; emulsion containing 0.02% QA) [nm] | Emulsion droplet size ([2]; emulsion containing 0.04% QA) [nm] | Emulsion droplet size ([2]; emulsion containing 0.1% QA) [nm] | Emulsions zeta potential ([1]; emulsion containing 0.005% QA) | Emulsion droplet size ([2]; emulsion containing 0.005% QA) [nm] | Emulsions zeta potential ([1]; emulsion containing 0.0025% QA) | Emulsion droplet size ([2]; emulsion containing 0.0025% QA) [nm] | Emulsions zeta potential ([1]; emulsion containing 0.001% QA) | Emulsion droplet size ([2]; emulsion containing 0.001% QA) [nm] | Ocular irritation (toxicity), Draize score [3] |
| --- | --- | --- | --- | --- | --- | --- | --- | --- | --- | --- | --- | --- | --- | --- | --- |
| CCCCCCCCCCCCCCCC[N+](C)(C)Cc1ccccc1 [BAK C16, cetylkonium chloride] | +36.7 mV | +44.1 mV | +47.2 mV | +48.9 mV | 180 | 155 | 188 | 183 | +31.4 mV | 148 | +24.4 mV | 210 | +16.2 mV | 220 | unexpected decrease of its toxicity |
